Measurements from ChEMBL document CHEMBL1155505, “Penicinoline, a new pyrrolyl 4-quinolinone alkaloid with an unprecedented ring system from an endophytic fungus Penicillium sp” (Bioorg Med Chem Lett, 2010).
Converted amounts (≈) assume the structure as drawn.

Experiments:
Uromyces viciae-fabae = test: […] activity against Uromyces fabae; assay type: functional
[1] = Cytotoxicity against human 95-D cells; assay type: functional, cell-based
HepG2 = test: Cytotoxicity against human HepG2 cells; assay type: functional, cell-based
HeLa = test: Cytotoxicity against human HeLa cells; assay type: functional, cell-based
KB = test: Cytotoxicity against human KB cells; assay type: functional, cell-based
[2] = Cytotoxicity against human KBv200 cells; assay type: functional, cell-based
HEp-2 = test: Cytotoxicity against human Hep2 cells; assay type: functional, cell-based
Aphis gossypii = test: Insecticidal activity against Aphis gossypii; assay type: functional
Plutella xylostella = test: Insecticidal activity against Plutella xylostella; assay type: functional
Heliothis virescens = test: Insecticidal activity against Heliothis virescens; assay type: functional
Zymoseptoria tritici = test: […] activity against Septoria tritici; assay type: functional

Row | Compound | min. effective conc. (Uromyces viciae-fabae) | IC50 [1] | IC50 (HepG2) | IC50 (HeLa) | IC50 (KB) | IC50 [2] | IC50 (HEp-2) | min. effective conc. (Aphis gossypii) | min. effective conc. (Plutella xylostella) | min. effective conc. (Heliothis virescens) | min. effective conc. (Zymoseptoria tritici)
1 | O=C(O)c1c(-c2ccc[nH]2)[nH]c2ccccc2c1=O [PENICINOLINE] | > 1000 ppm | 0.57 µg/mL (≈ 2.24 µM) | 6.5 µg/mL (≈ 25.6 µM) | > 100 µg/mL | > 100 µg/mL | > 100 µg/mL | > 100 µg/mL | 1000 ppm | > 1000 ppm | > 1000 ppm | > 1000 ppm
2 | Cn1c2c(c(=O)c3ccccc31)C(=O)n1cccc1-2 [PENICINOTAM] | > 1000 ppm | – | – | – | – | – | – | 1000 ppm | 500 ppm | > 1000 ppm | > 1000 ppm
